Assay results published in article PMC11944910, “N-(9-Acridinyl) Amino Acid Derivatives: Synthesis and In Vitro Evaluation of Anti-Toxoplasma gondii Activity” (Pharmaceutics, 2025).
Values joined by “and” are separate entries in the source; they are usually repeats but may differ in a detail not shown here. Identical values can stand only once.

Experiments:
[1] = MTT cytotoxicity assay on non-infected Vero cells; format: cell-based; details: Chlorocebus sabaeus (African green monkey), non-infected Vero cells (ATCC CCL-81), 72 h incubation
Excerpt: The Vero cell line (ATCC® CCL-81), derived from the kidney tissue of the Green African monkey (Chlorocebus sabaeus), was utilized as a model of non-infected cells in the cytotoxicity assay. The cells were thawed from stocks maintained in liquid nitrogen at the National Reference Laboratory (NRL) for Toxoplasmosis and cultured in D10 medium—Advanced Dulbecco’s Modified Eagle Medium (DMEM) (Thermo Fisher Scientific, Waltham, MA, USA), supplemented with 10% bovine calf serum (BCS) (Sigma-Aldrich, St. Louis, MO, USA), 1% HEPES buffer (Thermo Fisher Scientific, Waltham, MA, USA), and 1% penicillin-streptomycin (Pen/Strep) solution (Thermo Fisher Scientific, Waltham, MA, USA) in T25 and T75 flasks. Depending on confluency, cells were subcultured 1–2 times per week.
The MTT colorimetric assay, a widely used method for assessing the cytotoxicity of newly synthesized compounds, was used to evaluate the toxic effect of AADs on non-infected cells. This assay is based on the ability of metabolically active, viable cells to reduce the yellow 3-(4,5-dimethylthiazol-2-yl)-2,5-diphenyltetrazolium bromide (MTT) reagent to purple formazan. The number of viable cells in the well is directly proportional to the intensity of the resulting color. The MTT assay was performed according to the manufacturer’s instructions using the In Vitro Toxicology Assay Kit (MTT-based, Sigma-Aldrich, St. Louis, MO, USA), with a protocol specifically modified to accommodate the cell line and derivatives analyzed in this study.
In brief, Vero cells were seeded in a 96-well plate, at a density of 25,000 cells per well and incubated for 24 h at 37 °C in a 5% CO2 atmosphere. After the incubation period, the supernatant was removed from each well and replaced with serial dilutions of the analyzed derivatives, as well as with the combination of PYR+SDZ (Sigma-Aldrich, St. Louis, MO, USA) as a positive control. All compounds were investigated in five different concentrations, ranging from 100 μM to 6.25 μM, using a two-fold serial dilution method. The positive control was tested in the range of 0.4 μM + 100 μM to 0.025 μM + 6.25 μM (ratio of PYR+SDZ adjusted according to the literature). In negative control wells, containing only non-infected Vero cells, the discarded supernatant was replaced by a new amount of D10 medium. Blank wells, used to account for any background signal from the colored culture medium, contained only D10 medium. All samples, including controls and blanks, were analyzed in triplicates.
Samples containing Vero cells with added AADs or the positive control were incubated for 72 h. After incubation, the supernatant was discarded, and a new amount of D10 medium (100 μL) was added to each well. The MTT reagent (10 μL, […]) was subsequently added to each well, and the plates were incubated for an additional four hours. After the incubation period, the supernatant was discarded, and the resulting formazan crystals were dissolved using the solubilizing solution from the In Vitro Toxicology Assay Kit. Absorbance was measured at 540 nm using an ELISA plate reader (Multiskan EX, Thermofisher Scientific, Waltham, MA, USA). Data analysis was conducted, and CC50 values (cytotoxic concentration used to lyse/inhibit average of 50% of cells) were obtained using nonlinear regression in GraphPad Prism 10.4.1 (GraphPad Software Inc., La Jolla, CA, USA).

[2] = test system: T. gondii RH strain tachyzoites; assay: Anti-T. gondii activity screening (viable tachyzoite count, Trypan blue); format: cell-based, Toxoplasma gondii; details: 25 µM, 24 h, compared to untreated control
Protocol: T. gondii RH strain tachyzoites were obtained from the NRL for Toxoplasmosis, Institute for Medical Research, Belgrade, Serbia, where the RH strain is regularly maintained via passages using female Swiss-Webster mice twice a week (Ethical license no. 323-07-02445/2014-05/1).
The anti-T. gondii activity of the AADs was evaluated according to previously described methodology, slightly modified by using the DMEM culture medium supplemented with 10% bovine calf serum (BCS) without antibiotics (referred to as modified D10 medium). RH strain T. gondii tachyzoites were harvested from the intraperitoneal exudate of infected mice during routine passage of the strain at the NRL for toxoplasmosis. The sample (intraperitoneal lavage fluid of RH strain-infected mice) was then washed three times using Dulbecco Phosphate Buffered Saline (DPBS) (Thermofisher Scientific, Waltham, MA, USA) and centrifuged at 2.500 rpm for five minutes to obtain a pellet consisting of RH strain tachyzoites only. The pellet was then resuspended, and the parasite count was determined by Trypan blue vital staining, using a Bürker-Türk counting chamber. Tachyzoites were resuspended in an appropriate volume of DMEM culture medium to achieve the required tachyzoite concentration. A suspension of tachyzoites (2 × 10^6 tachyzoites/well, in 100 μL volume) was then seeded into a 96-well microplate and exposed to a 25 µM concentration of 10 AADs, as well as a combination of PYR+SDZ, for 24 h. All samples, including the untreated control consisting of RH strain tachyzoites in a modified D10 culture medium, were tested in triplicates.
After 24 h, 20 µL of sample was collected from each well, mixed with an equal volume of Trypan blue stain, and the number of viable tachyzoites was determined using a Bürker-Türk counting chamber. The reduction in the number of viable tachyzoites compared to untreated control was calculated using the following formula:(1) Reduction %=100%−(median value of number of viable tachyzoites in test wells/median value of number of viable tachyzoites in control wells×100%)

[3] = Solution stability by HPLC; format: physicochemical; details: pH 2 (0.01 M HCl) 2 h; pH 5.5 and pH 7.4 phosphate buffer 4 h
Protocol: Solubility and stability testing was conducted for three of the derivatives, evaluated as potential in vivo testing candidates, namely AAD1, AAD2 and AAD8. The stability of the synthesized AADs was evaluated in mediums with three different pH values: 2 (0.01 M HCl), 5.5 (phosphate buffer) and 7.4 (phosphate buffer). Stability was tested by employing a HPLC method, using an Agilent 1200 chromatograph (Agilent Technologies, Palo Alto, CA, USA) and Zorbax Extend C18 column (Agilent Technologies, Palo Alto, CA, USA). The mobile phase consisted of acetonitrile and water (pH was adjusted to 3.2 using phosphoric acid) at a ratio of 30:70 (v/v) for all three AADs. Column temperature was adjusted to 25 °C, while the flow rate was […]. UV detection was performed at 220, 230, 254, 265 and 280 nm. In short, samples (solutions of the investigated AADs in the appropriate mediums) were injected twice into the HPLC column: the first time right after the preparation of the solutions, and the second time after the stability testing interval—two hours for the pH 2 solution and four hours for the pH 5.5 and 7.4 solutions. At the end of the incubation intervals, the decrease in peak areas and occurrence of additional peaks on chromatograms were analyzed in comparison with the chromatograms obtained right after the preparation of the solutions.

[4] = Solubility by visual inspection; format: physicochemical; details: for Solubility on dilution of DMSO solution in pH 7.4 phosphate buffer: diluted up to 10,000 times in pH 7.4 phosphate buffer; for solubility: organic solvent or mixture, DMSO, tested up to 30 mM, read-out: Solubility in DMSO (clear and transparent solutions)
Protocol: Solubility and stability testing was conducted for three of the derivatives, evaluated as potential in vivo testing candidates, namely AAD1, AAD2 and AAD8. Solubility was evaluated using a visual inspection method, checking the clarity and opalescence of different concentrations (up to 30 mM) of dimethyl sulfoxide (DMSO) solutions of the mentioned AADs, as well as of their further dilutions with the pH 7.4 phosphate buffer (100-, 1000- and 10,000-times dilutions).

| Solution stability (HPLC peak area, additional peaks) [3] | Solubility on dilution of DMSO solution in pH 7.4 phosphate buffer [4] | solubility [4] | SMILES | CC50 at 72 h [1] | Viability Reduction of T. gondii Tachyzoites [2] |
| --- | --- | --- | --- | --- | --- |
|  |  |  | O=C(O)[C@H](Cc1ccccc1)Nc1c2ccccc2nc2ccccc12 [AAD9, (S) 2-(acridin-9-ylamino)-3-phenylpropanoic acid] | 50.2 µM |  |
| stable | maintaining solubility | ≥ 30 mM | O=C(O)CCCNc1c2ccccc2nc2ccccc12 [AAD8, 4-(acridin-9-ylamino) butanoic acid] | 102 µM | 33.3% |
|  |  |  | O=C(O)CCCCCCCNc1c2ccccc2nc2ccccc12 [AAD6, 8-(acridin-9-ylamino) octanoic acid] | 154 µM | 22.0% |
| stable | maintaining solubility | ≥ 30 mM | CCOC(=O)CCCCCNc1c2ccccc2nc2ccccc12 [AAD1] | 41.7 µM | 24.7% |
|  |  |  | COC(=O)CCCCCCCNc1c2ccccc2nc2ccccc12 [AAD3] | 88.4 µM | 15.2% |
|  |  |  | O=C(O)CCCCCNc1c2ccccc2nc2ccccc12 [AAD7, 6-(acridin-9-ylamino) hexanoic acid] | 93 µM | 20.9% and 20.5% |
|  |  |  | COC(=O)C(Cc1c[nH]cn1)Nc1c2ccccc2nc2ccccc12 (stereo not shown) [AAD4] | 134 µM | 4.5% |
| stable | maintaining solubility | ≥ 30 mM | Cn1cc(CC(Nc2c3ccccc3nc3ccccc23)C(=O)O)c2ccccc21 (stereo not shown) [AAD2] | 60.2 µM |  |
|  |  |  | O=C(O)CCNc1c2ccccc2nc2ccccc12 [AAD10, 3-(acridin-9-ylamino) propanoic acid] | 177 µM | 21.9% |
